From ChEMBL document CHEMBL1201862, “PubChem BioAssay data set” (2004)
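Five concentrations, 48 hours, 96-well plates. GI50: concentration for 50% inhibition of growth.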 Calls of active or inactive are those of the source. No stated cut-off is given here; in the data, active = GI50 up to about 1.1 µM and inactive = higher.

What was measured:
Assay in all cases: growth of human tumour cells (NCI), 48 h
HOP-62 = test system: HOP-62
T47D = test system: T47D
KM12 = test system: KM12
HOP-92 = test system: HOP-92
HCT-15 = test system: HCT-15
NCI-H23 = test system: NCI-H23
MDA-MB-435 = test system: MDA-MB-435
SW-620 = test system: SW-620
A498 = test system: A498
CAKI-1 = test system: CAKI-1
A549 = test system: A549
HCT-116 = test system: HCT-116
SF-539 = test system: SF-539
EKVX = test system: EKVX
HL-60 = test system: HL-60
OVCAR-4 = test system: OVCAR-4
MOLT-4 = test system: MOLT-4
LOX IMVI = test system: LOX IMVI
UACC-257 = test system: UACC-257
NCI-H522 = test system: NCI-H522
OVCAR-8 = test system: OVCAR-8
SNB-19 = test system: SNB-19
M14 = test system: M14
CCRF-CEM = test system: CCRF-CEM
SK-MEL-28 = test system: SK-MEL-28
NCI-H460 = test system: NCI-H460
HCC 2998 = test system: HCC 2998
PC-3 = test system: PC-3
K562 = test system: K562
HT-29 = test system: HT-29
SNB-75 = test system: SNB-75
SK-OV-3 = test system: SK-OV-3
NCI-H226 = test system: NCI-H226
BT-549 = test system: BT-549
Malme-3M = test system: Malme-3M
RPMI-8226 = test system: RPMI-8226
786-0 = test system: 786-0
UACC-62 = test system: UACC-62
DU-145 = test system: DU-145
SN12C = test system: SN12C
Hs-578T = test system: Hs-578T
IGROV-1 = test system: IGROV-1
MDA-MB-231 = test system: MDA-MB-231
COLO 205 = test system: COLO 205
OVCAR-5 = test system: OVCAR-5
MCF7 = test system: MCF7
SK-MEL-5 = test system: SK-MEL-5
SR = test system: SR
NCI/ADR-RES = test system: NCI/ADR-RES
U-251 = test system: U-251
OVCAR-3 = test system: OVCAR-3
UO-31 = test system: UO-31
SK-MEL-2 = test system: SK-MEL-2
SF-295 = test system: SF-295
TK-10 = test system: TK-10
SF-268 = test system: SF-268
ACHN = test system: ACHN
MDA-N = test system: MDA-N
RXF 393 = test system: RXF 393

With `Cc1ccc2c(c1)-c1c(C#N)c(N)nc(-c3ccccc3)c1CCS2(=O)=O` the GI50 (HOP-62) was 6.95 µM (inactive), the GI50 (T47D) was 15.1 µM (inactive) and the GI50 (KM12) was 4.85 µM (inactive). For the same compound, the GI50 (HOP-92) was 56.5 µM (inactive), the GI50 (HCT-15) was 4.54 µM and the GI50 (NCI-H23) was 8.65 µM (inactive). The GI50 (MDA-MB-435) was 1.72 µM (inactive), the GI50 (SW-620) was 5.6 µM (inactive) and the GI50 (A498) was 8.71 µM (inactive). The GI50 (CAKI-1) was 10.5 µM (inactive), the GI50 (A549) was 11 µM (inactive) and the GI50 (HCT-116) was 6.38 µM (inactive). The GI50 (SF-539) was 6.35 µM (inactive), the GI50 (EKVX) was 18.7 µM (inactive) and the GI50 (HL-60) was 0.204 µM (active). The GI50 (OVCAR-4) was 52 µM (inactive), the GI50 (MOLT-4) was 7.53 µM (inactive) and the GI50 (LOX IMVI) was 12.6 µM (inactive). For the same compound, the GI50 (UACC-257) was 6.31 µM (inactive), the GI50 (NCI-H522) was 1.12 µM (inactive) and the GI50 (OVCAR-8) was 11.7 µM (inactive). The GI50 (SNB-19) was 4.16 µM (inactive), the GI50 (M14) was 4.54 µM (inactive) and the GI50 (CCRF-CEM) was 1.23 µM (inactive). The GI50 (SK-MEL-28) was 11.8 µM (inactive), the GI50 (NCI-H460) was 4.17 µM (inactive) and the GI50 (HCC 2998) was 8.13 µM (inactive). The GI50 (PC-3) was 13.4 µM (inactive), the GI50 (K562) was 1.97 µM (inactive) and the GI50 (HT-29) was 3.78 µM (inactive). The GI50 (SNB-75) was 3.72 µM (inactive), the GI50 (SK-OV-3) was 5.53 µM (inactive) and the GI50 (NCI-H226) was 5.36 µM (inactive). The GI50 (BT-549) was 12.1 µM (inactive), the GI50 (Malme-3M) was 2.45 µM (inactive) and the GI50 (RPMI-8226) was 4.56 µM (inactive). The GI50 (786-0) was 6.38 µM (inactive), the GI50 (UACC-62) was 3.84 µM (inactive) and the GI50 (DU-145) was 6.19 µM (inactive). The GI50 (SN12C) was 17.7 µM (inactive), the GI50 (Hs-578T) was 5.98 µM (inactive) and the GI50 (IGROV-1) was 5.31 µM (inactive). The GI50 (MDA-MB-231) was 17.5 µM (inactive), the GI50 (COLO 205) was 6.03 µM (inactive) and the GI50 (OVCAR-5) was 10.1 µM (inactive). For the same compound, the GI50 (MCF7) was 4.48 µM (inactive), the GI50 (SK-MEL-5) was 3.03 µM (inactive) and the GI50 (SR) was 0.834 µM (active). The GI50 (NCI/ADR-RES) was 5.26 µM (inactive), the GI50 (U-251) was 8.22 µM (inactive) and the GI50 (OVCAR-3) was 5.47 µM (inactive). The GI50 (UO-31) was 13.4 µM (inactive), the GI50 (SK-MEL-2) was > 29.2 µM (inactive) and the GI50 (SF-295) was 5.47 µM (inactive). For the same compound, the GI50 (TK-10) was > 100 µM (inactive), the GI50 (SF-268) was 22.9 µM (inactive) and the GI50 (ACHN) was 8.53 µM (inactive).

For `Cc1cc(C23OC4COC(C)(C)OC4C2OC(C)(C)O3)nc2ccccc12` (stereo not drawn), the GI50 (HOP-62) was > 100 µM (inactive), the GI50 (T47D) was > 100 µM (inactive) and the GI50 (KM12) was > 100 µM (inactive). For the same compound, the GI50 (HOP-92) was > 100 µM (inactive), the GI50 (HCT-15) was over 100 µM and the GI50 (NCI-H23) was > 100 µM (inactive). For the same compound, the GI50 (MDA-MB-435) was > 100 µM (inactive), the GI50 (SW-620) was > 100 µM (inactive) and the GI50 (A549) was > 100 µM (inactive). The GI50 (HCT-116) was > 100 µM (inactive), the GI50 (SF-539) was > 100 µM (inactive) and the GI50 (EKVX) was > 100 µM (inactive). For the same compound, the GI50 (HL-60) was 33.4 µM (inactive), the GI50 (OVCAR-4) was > 100 µM (inactive) and the GI50 (MOLT-4) was 25.5 µM (inactive). The GI50 (MDA-N) was > 100 µM (inactive), the GI50 (LOX IMVI) was > 100 µM (inactive) and the GI50 (UACC-257) was > 100 µM (inactive). For the same compound, the GI50 (NCI-H522) was > 100 µM (inactive), the GI50 (OVCAR-8) was > 100 µM (inactive) and the GI50 (SNB-19) was > 100 µM (inactive). For the same compound, the GI50 (M14) was > 100 µM (inactive), the GI50 (CCRF-CEM) was 32.1 µM (inactive) and the GI50 (SK-MEL-28) was > 100 µM (inactive). The GI50 (NCI-H460) was > 100 µM (inactive), the GI50 (HCC 2998) was > 100 µM (inactive) and the GI50 (PC-3) was 78.2 µM (inactive). For the same compound, the GI50 (K562) was 44.1 µM (inactive), the GI50 (HT-29) was 76.6 µM (inactive) and the GI50 (SNB-75) was > 100 µM (inactive). The GI50 (SK-OV-3) was > 100 µM (inactive), the GI50 (NCI-H226) was > 100 µM (inactive) and the GI50 (Malme-3M) was > 100 µM (inactive). For the same compound, the GI50 (RPMI-8226) was > 100 µM (inactive), the GI50 (786-0) was > 100 µM (inactive) and the GI50 (UACC-62) was > 100 µM (inactive). The GI50 (DU-145) was > 100 µM (inactive), the GI50 (SN12C) was > 100 µM (inactive) and the GI50 (Hs-578T) was 82.2 µM (inactive). For the same compound, the GI50 (IGROV-1) was 31.3 µM (inactive), the GI50 (MDA-MB-231) was > 100 µM (inactive) and the GI50 (COLO 205) was > 100 µM (inactive). For the same compound, the GI50 (OVCAR-5) was > 100 µM (inactive), the GI50 (MCF7) was > 100 µM (inactive) and the GI50 (SK-MEL-5) was > 100 µM (inactive). The GI50 (SR) was 72.8 µM (inactive), the GI50 (NCI/ADR-RES) was > 100 µM (inactive) and the GI50 (U-251) was > 100 µM (inactive). The GI50 (OVCAR-3) was > 100 µM (inactive), the GI50 (UO-31) was > 100 µM (inactive) and the GI50 (SK-MEL-2) was > 100 µM (inactive). The GI50 (SF-295) was > 100 µM (inactive), the GI50 (TK-10) was > 100 µM (inactive) and the GI50 (SF-268) was > 100 µM (inactive). The GI50 (RXF 393) was > 100 µM (inactive) and the GI50 (ACHN) was > 100 µM (inactive).
